Test results: patent US11219608B2, “Triple combination formulation for treatment of chronic pain” (Northwestern University, priority 2017, dated 2022)
Entries after “also recorded” stand apart in the source; their conditions may differ.

How the values were obtained:
[1] = system: animal pain models; settings: systemically applied; cited from earlier work
[2] = system: Npc1nmf164 mice; test: Foamy macrophages in lungs of Npc1nmf164 mice (H&E); assay type: in vivo, mouse; settings: Npc1nmf164 mice at 100 days of age, weekly i.p.
Description: H&E stained micrographs showing foamy macrophages (indicated by black arrows) at 100 days of age in the lung of Npc1^+/nmf164 (healthy control) and Npc1^nmf164 (^Npc) mutant mice treated as indicated. Foamy macrophages were abundant in untreated Npc mice. […] Images were taken with 40× objective lens and are representative of 4 mice in each group. Number of mice in each group=4. For quantitation, 10-15 random fields were analyzed per lung section. Untr, Untreated.*p=0.02, TCF vs HPBCD, two-tailed Mann-Whitney test.
Drug injection and organ harvest—The Triple combination formulation (TCF) is a mixture of vorinostat (50 mg/kg), HPBCD (2000 mg/Kg)), PEG 400 (45%) and DMSO (5%). Vorinostat (50 mg/Kg) was made in 5% DMSO and 45% PEG. HPBCD was a 20% (w/v) solution and given dose of 2000 mg/Kg. Detailed methodology on preparing drug solutions have been descried earlier^10. To enable comparative studies with prior regiments, all mice were given two doses of HPBCD at P7 and P15. From P21 onwards, mice received either HPBCD alone or TCF, as indicated. Vo was also initiated at P21. […] For lung histopathology, Npc1^nmf164 mice were analyzed at 100-109 days of age. Long-term safety was assessed for 8-10 months either in Npc^1+/nmf164 or commercially purchased wild type Balb/c mice. […]

[3] = system: Npc1nmf164 mice; test: Efficacy in Npc1nmf164 mouse model of Niemann-Pick type C disease; assay type: in vivo
Description: Animals—Npc1^nmf164 is a BALB/c strain carry a D1005G (A to G at cDNA bp 3163) mutation in the Npc1 gene 32. […] Homozygous mutants (Npc1^nmf164) along with wild-type littermates (Npc1^+/+), were generated in house by crossing heterozygous mutant (Npc1^+/nmf164) males and females and genotyped as previously described^10. Wild type Balb/c mice were procured from Envigo (Indianapolis, Ind., USA).
Drug injection and organ harvest—The Triple combination formulation (TCF) is a mixture of vorinostat (50 mg/kg), HPBCD (2000 mg/Kg)), PEG 400 (45%) and DMSO (5%). Vorinostat (50 mg/Kg) was made in 5% DMSO and 45% PEG. HPBCD was a 20% (w/v) solution and given dose of 2000 mg/Kg. […] To enable comparative studies with prior regiments, all mice were given two doses of HPBCD at P7 and P15. From P21 onwards, mice received either HPBCD alone or TCF, as indicated. Vo was also initiated at P21. Injections were administered weekly through the intraperitoneal (i.p) route (and the injection volume used was 10 ml/Kg body weight across all treatment groups). For lung histopathology, Npc1^nmf164 mice were analyzed at 100-109 days of age. Long-term safety was assessed for 8-10 months either in Npc^1+/nmf164 or commercially purchased wild type Balb/c mice.

[4] = literature, cited from earlier work
[5] = system: inflammatory pain model; settings: intrathecal; cited from earlier work
[6] = system: SNI; settings: intrathecal injection; cited from earlier work
[7] = Quantification of Vo in lungs by mass spectrometry; assay type: in vivo, mouse; settings: Npc1+/nmf164 mice
Description: Npc1^+/nmf164 injected i.p. with Vo or TCF. At indicated times, animals sacrificed, perfused with PBS and Vo concentration in lungs were determined by mass spectrometry. n=5. h, hour. *p=0.02, TCF vs Vo 0.5 h, and **p=0.014 TCF vs Vo, 1 h, two tailed Student's t test.
Quantification of Vo in lungs—Npc1^+/nmf164 mice (age 6-7 weeks) were given intraperitoneal injections of either Vo (50 mg/Kg in 45% PEG and 5% DMSO) or TCF (Vo 50 mg/Kg+HPBCD, 2000 mg/Kg+PEG, 45%+DMSO, 5%). At 30 min and 1 h post injection, mice were asphyxiated with CO2, blood was drawn by cardiac puncture and organs were perfused with 20 ml ice-cold PBS through the ventricle. Harvested lungs were cut into small pieces (4-6 mm2) and flash frozen in liquid nitrogen. The quantification of vorinostat was done by Metabolite Profiling Facility, Bindley Bioscience Center, Purdue University, Ind., USA. The detailed methods are as described earlier^10. Briefly, the tissue was homogenized using a Precelly bead homogenizer system utilizing ceramic CK 14 beads. 2 ng of deuterated internal standard (d5-Vorinostat, Toronto Research Chemicals, Ontario, Canada) was added to lung homogenate prior to liquid extraction with acetonitrile. Prior to analysis, samples were reconstituted in 100 μL of 50% water/50% acetonitrile. An Agilent 1200 Rapid Resolution liquid chromatography (HPLC) system coupled to an Agilent 6460 series triple quadrupole mass spectrometer (MS/MS) was used to analyze vorinostat. The data were obtained in positive electrospray ionization (ESI) mode and quantitated by monitoring the following transitions: for Vorinostat, 265→232 with a collision energy of 5 V and for d5-Vorinostat, 270→237 with collision energy of 5 V.

CCCC(CCC)C(=O)O [valproic acid]
analgesia [1]: modest analgesia

CC(O)COC[C@H]1O[C@@H]2O[C@H]3[C@H](O)[C@@H](O)[C@@H](O[C@H]4[C@H](O)[C@@H](O)[C@@H](O[C@H]5[C@H](O)[C@@H](O)[C@@H](O[C@H]6[C@H](O)[C@@H](O)[C@@H](O[C@H]7[C@H](O)[C@@H](O)[C@@H](O[C@H]8[C@H](O)[C@@H](O)[C@@H](O[C@H]1[C@H](O)[C@H]2O)O[C@@H]8COCC(C)O)O[C@@H]7COCC(C)O)O[C@@H]6COCC(C)O)O[C@@H]5COCC(C)O)O[C@@H]4COCC(C)O)O[C@@H]3COCC(C)O (stereo partly drawn) [HPBCD, 2-hydroxypropyl-β-cyclodextrin]
accumulation of foamy macrophages in the lungs [2]: abundant macrophage accumulation; also recorded: no effect | benefit on Npc1nmf164 mouse survival ([3]; 2×HPBCD compared to 1×HPBCD alone): no additional benefit | blood brain barrier crossing [4]: does not cross the blood brain barrier | distribution to lung ([4]; systemic delivery): excluded from lung

CC(/C=C/C(=O)NO)=C\[C@@H](C)C(=O)c1ccc(N(C)C)cc1 [trichostatin A]
histone acetylation in the spinal cord dorsal horn [5]: enhanced histone acetylation | hyperalgesia [5]: reduced hyperalgesia

O=C(/C=C/c1ccc(CN(CCO)CCc2c[nH]c3ccccc23)cc1)NO [dacinostat]
histone acetylation in the spinal cord dorsal horn [5]: enhanced histone acetylation | hyperalgesia [5]: reduced hyperalgesia

O=C(O)[C@H]1O[C@@H](Oc2cc3oc(-c4ccccc4)cc(=O)c3c(O)c2O)[C@H](O)[C@@H](O)[C@@H]1O [baicalin]
histone acetylation [6]: reduces histone acetylation | pain behavior [6]: reverses pain behavior

O=C(CCCCCCC(=O)Nc1ccccc1)NO [Vo, vorinostat]
histone acetylation in the spinal cord dorsal horn [5]: enhanced histone acetylation | hyperalgesia [5]: reduced hyperalgesia | accumulation of foamy macrophages in the lungs [2]: abundant macrophage accumulation; also recorded: no effect | reduction of Vo lung concentration from 30 min to 60 min ([7]; i.p.): 65-70% | concentration at 30 min ([7]; mouse, lung, ip, 50 mg/Kg, 30 min post i.p. injection): 3200 ng/g | concentration at 60 min ([7]; mouse, lung, ip, 50 mg/Kg, 60 min post i.p. injection): 1000 ng/g | benefit on Npc1nmf164 mouse survival ([3]; Vo in PEG): no benefit

COc1cc(/C=C/C(=O)CC(=O)/C=C/c2ccc(O)c(OC)c2)ccc1O [curcumin]
analgesia [1]: modest analgesia
